Measured values as given in EP2665736B1, “CORONA-LIKE (GUANIDYL)-OLIGOSACCHARIDIC DERIVATIVES AS CELL-P[…] FOR INTRACELLULAR DELIVERY OF COLLOIDAL T[…]” (Universita' Degli Studi Di Padova, priority 2011, dated 2012).

How the values were obtained:
[1] = system: MC3T3-E1 cells; experiment: Cytotoxicity test (MTT cell viability); type: cell-based, murine; details: 0 to 100 µM, 24 hours incubation plus 48 hours growth
Protocol: (§1) The human MCF-7 breast adenocarcinoma and murine MC3T3-E1 embryonic fibroblast cell lines were growth in RPMI 1640 and DMEM medium, respectively, supplemented with 10% heated inactivated foetal bovine serum (FBS), 1% L-glutamine, 1% penicillin-streptomycin-amphotericin B mixture. All cells were maintained at 37 °C in humidified 5% CO2 atmosphere and splitted every 2-3 day.
(§2) MCF-7 and MC3T3-E1 cells were plated in 96-well flat bottomed microassay plates (1 × 10^4 cells/well) and grown for 24 hours. After complete adhesion, (arginyl)7-maltotriosyl-N-acetyl-amino-dodecanoic acid or 2 kDa polyethylenimine (PEI) as control were added to the culture media at increasing concentrations: from 0 to 100 µM. The cells were incubated for 24 hours at 37°C and then the medium was discarded by aspiration and replaced with 200 µl of fresh medium. The cells were grown for further 48 hours. Twenty microliters of 5 mg/mL of 3-(4,5-dimethylthiazol-2-yl)-2,5-diphenyltetrazolium bromide (MTT) in D-PBS were added to each well. […] The plates were gently shaken for 30 min and absorbance was measured at 570 nm with a reference wavelength of 630 nm. The cell viability was expressed as a percent viability of treated cells against untreated cells used as control. […]

[2] = system: MCF-7 cells; experiment: Cytotoxicity test (MTT cell viability); type: cell-based, human; details: 0 to 100 µM, 24 hours incubation plus 48 hours growth
Protocol: as §1, §2

**Q.** For “(arginyl)7-maltotriosyl-N-acetyl-amino-dodecanoic acid”, which IC50 [1] is on record?
**A.** > 100 µM

**Q.** What about the IC50 [2] of the same substance?
**A.** > 100 µM
